Source: US11331271B2, “Buccal, sublingual and intranasal delivery of fospropofol” (The Johns Hopkins University, priority 2016, dated 2022)
Entries after “also recorded” stand apart in the source; their conditions may differ.

Test system: healthy male volunteers
Experiment: Human Study 1: treatment-emergent adverse events (TEAE), safety, Modified OAA/S
Assay type: in vivo
Experimental: In human study 1, fospropofol disodium was formulated as a sterile aqueous solution at a concentration of 20 mg/mL. Each vial provided contained 20 mL of solution, suitable for intravenous injection. Fospropofol was administered as a single dose of 400 mg orally, directly into the duodenum by gastroscopy or intravenously over 10 min. In human study 2, fospropofol disodium in capsules (200 mg) or matching placebo was administered orally.
The first study was an absolute bioavailability study of fospropofol conducted at a single center (PRA Health Sciences) in Groningen, Netherlands, as a three-way crossover study. The study enrolled 7 healthy male volunteers between 18 and 45 years of age inclusive, with a body mass index between 18 and 28 kg/m^2. Subjects stayed in the clinical unit for three consecutive periods of 3 days each, with a 3-day washout, between periods. For six subjects, the order of the administration routes was as follows—period 1: PO, period 2: ID, and period 3: IV. For one subject the order of the administration routes was the following—period 1: ID, period 2: IV and period 3: PO. In this study a single dose of 400 mg was administered by each route. Blinding and placebo control was impractical due to the requirement of unsedated endoscopic administration of fospropofol into the duodenum. Safety and overall pharmacodynamic effect was evaluated based on adverse events, vital signs, electrocardiogram (ECG), Modified Observer's Assessment of Alertness/Sedation (OAA/S) score, clinical laboratory tests, and physical examination.

## CC(C)c1cccc(C(C)C)c1OCOP(=O)(O)O [fospropofol]
400 mg PO
  TEAE NERVOUS SYSTEM DISORDERS, events (E): 6
  TEAE NERVOUS SYSTEM DISORDERS, subjects (%): 57%
  TEAE PSYCHIATRIC DISORDERS, events (E): 1
  TEAE PSYCHIATRIC DISORDERS, subjects (%): 14%
  TEAE TOTAL, events (E): 8
  TEAE TOTAL, subjects (%): 86%
  TEAE dizziness, events (E): 1
  TEAE dizziness, subjects (%): 14%
  TEAE euphoric mood, events (E): 1
  TEAE euphoric mood, subjects (%): 14%
  TEAE nausea, events (E): 1
  TEAE nausea, subjects (%): 14%
  TEAE paresthesia, events (E): 1
  TEAE paresthesia, subjects (%): 14%
  TEAE somnolence, events (E): 4
  TEAE somnolence, subjects (%): 57%
400 mg PO, one subject
  time to resolution of euphoria: 17 min
400 mg oral
  Modified OAA/S score, all subjects at all times: 5
400 mg, Total (PO+ID+IV)
  TEAE BLOOD AND LYMPHATIC SYSTEM DISORDERS, events (E): 1
  TEAE BLOOD AND LYMPHATIC SYSTEM DISORDERS, subjects (%): 14%
  TEAE EYE DISORDERS, events (E): 5
  TEAE EYE DISORDERS, subjects (%): 71%
  TEAE GASTROINTESTINAL DISORDERS, events (E): 6
  TEAE GASTROINTESTINAL DISORDERS, subjects (%): 57%
  TEAE GENERAL DISORDERS AND ADMINISTRATION SITE CONDITIONS, events (E): 12
  TEAE GENERAL DISORDERS AND ADMINISTRATION SITE CONDITIONS, subjects (%): 71%
  TEAE INFECTIONS AND INFESTATIONS, events (E): 1
  TEAE INFECTIONS AND INFESTATIONS, subjects (%): 14%
  TEAE MUSCULOSKELETAL AND CONNECTIVE TISSUE DISORDERS, events (E): 2
  TEAE MUSCULOSKELETAL AND CONNECTIVE TISSUE DISORDERS, subjects (%): 29%
  TEAE NERVOUS SYSTEM DISORDERS, events (E): 40
  TEAE NERVOUS SYSTEM DISORDERS, subjects (%): 100%
  TEAE PSYCHIATRIC DISORDERS, events (E): 3
  TEAE PSYCHIATRIC DISORDERS, subjects (%): 43%
  TEAE REPRODUCTVE SYSTEM AND BREAST DISORDERS, events (E): 1
  TEAE REPRODUCTVE SYSTEM AND BREAST DISORDERS, subjects (%): 14%
  TEAE SKIN AND SUBCUTANEOUS TISSUE DISORDERS, events (E): 2
  TEAE SKIN AND SUBCUTANEOUS TISSUE DISORDERS, subjects (%): 29%
  TEAE TOTAL, subjects (%): 100%
  TEAE burning sensation, events (E): 6
  TEAE burning sensation, subjects (%): 43%
  TEAE catheter site pain, events (E): 1
  TEAE catheter site pain, subjects (%): 14%
  TEAE diplopia, events (E): 1
  TEAE diplopia, subjects (%): 14%
  TEAE disorientation, events (E): 1
  TEAE disorientation, subjects (%): 14%
  TEAE dizziness postural, events (E): 1
  TEAE dizziness postural, subjects (%): 14%
  TEAE dizziness, events (E): 5
  TEAE dizziness, subjects (%): 43%
  TEAE dry mouth, events (E): 1
  TEAE dry mouth, subjects (%): 14%
  TEAE dyspepsia, events (E): 1
  TEAE dyspepsia, subjects (%): 14%
  TEAE ecchymosis, events (E): 1
  TEAE ecchymosis, subjects (%): 14%
  TEAE euphoric mood, events (E): 2
  TEAE euphoric mood, subjects (%): 29%
  TEAE fatigue, events (E): 4
  TEAE fatigue, subjects (%): 43%
  TEAE feeling abnormal, events (E): 1
  TEAE feeling abnormal, subjects (%): 14%
  TEAE feeling cold, events (E): 1
  TEAE feeling cold, subjects (%): 14%
  TEAE feeling drunk, events (E): 1
  TEAE feeling drunk, subjects (%): 14%
  TEAE flatulence, events (E): 1
  TEAE flatulence, subjects (%): 14%
  TEAE genital pruritis male, events (E): 1
  TEAE genital pruritis male, subjects (%): 14%
  TEAE herpes simplex, events (E): 1
  TEAE herpes simplex, subjects (%): 14%
  TEAE lymph node pain, events (E): 1
  TEAE lymph node pain, subjects (%): 14%
  TEAE muscle fatigue, events (E): 2
  TEAE muscle fatigue, subjects (%): 29%
  TEAE nausea, events (E): 2
  TEAE nausea, subjects (%): 14%
  TEAE paresthesia, events (E): 10
  TEAE paresthesia, subjects (%): 86%
  TEAE proctalgia, events (E): 1
  TEAE proctalgia, subjects (%): 14%
  TEAE rash, events (E): 1
  TEAE rash, subjects (%): 14%
  TEAE sluggishness, events (E): 3
  TEAE sluggishness, subjects (%): 43%
  TEAE somnolence, events (E): 11
  TEAE somnolence, subjects (%): 100%
  TEAE speech disorder, events (E): 6
  TEAE speech disorder, subjects (%): 86%
  TEAE subrapubic pain, events (E): 1
  TEAE subrapubic pain, subjects (%): 14%
  TEAE tremor, events (E): 1
  TEAE tremor, subjects (%): 14%
  TEAE visual disturbance, events (E): 4
  TEAE visual disturbance, subjects (%): 57%
400 mg, all routes
  TEAEs considered possibly or probably related to study drug: Seventy
  clinical laboratory results, vital signs, ECG, physical examination: No clinically-relevant abnormalities
  lowest observed Modified OAA/S score: 4
  serious adverse events: No subject experienced a serious adverse event; also recorded: No severe or serious TEAEs
  severity of TEAEs: mild
400 mg, all routes, after dosing
  time to resolution of TEAEs (all but one): ≤ 1 h
400 mg, all routes, postdose
  time by which all subjects had Modified OAA/S scores of 5: ≤ 1.5 h
